Patent EP3839043A1, “SCREENING METHODS FOR COMPOUNDS MODULATING POLYAMINE TRANSPORT” (Katholieke Universiteit Leuven, priority 2019, dated 2021)

Tested on: SH-SY5Y cells
Assay: MUH cytotoxicity assay
Assay type: cell-based, human
Conditions: increasing concentrations, 24 h
Procedure: MUH cytotoxicity assay - SH-SY5Y cells were seeded in 96-well plates (1 X 10^4 cells per well) and allowed to adhere overnight. The cells were subsequently treated with increasing doses of the indicated compounds for 24-48 h. Following exposure, the cells were washed with PBS and stained with 300 µg/ml MUH (prepared in DMSO, dissolved in PBS) for 30 min at 37°C.

Row | Structure (SMILES) | viability of control cells
1 | NCCCCNCCCN [Spermidine, spermidine] | reduced the viability
2 | NCCCNCCCCNCCCN [Spermine, spermine] | reduced the viability
